System: Yac-1 cell line
Assay: Cytotoxicity of NK cells cultured in NK cell activation medium including antioxidants, co-culture with Yac-1 cells
Settings: mouse spleen NK cells cultured 30-60 minutes in medium with 1 mM N-acetylcysteine or 0.5 mM TEMPOL; compared with normal NK cells (control) (FIG. 6)
Method: NK cell activation media were prepared as follows. In an NK cell culture medium obtained by mixing 10% FBS, 1× penicillin/streptomycin, 1× glutamax, 1× HEPES, 0.5 mM sodium pyruvate, 50 μM 2-mercaptoethanol, and 50 ng/ml interleukin-2 (IL-2) in RPMI1640 medium, 1 mM N-acetylcysteine or 0.5 mM 4-hydroxy-2,2,6,6-tetramethylpiperidine 1-oxyl (TEMPOL) was blended.
The Yac-1 cell line was added in RPMI1640 (10% FBS/RPMI1640) medium including 10% FBS, treated with 5 μg/ml Calcein AM (Invitrogen, C1430), and cultured for 1 hour in a cell culture machine at 37° C. in the presence of 5% carbon dioxide conditions to label with fluorescence. Afterwards, the NK cells and fluorescence-labeled Yac-1 cells were mixed in a ratio of 10:1, 5:1, and 1:1 and dispensed in a round bottom 96-well plate (SPL, #34096). Additionally, fluorescence-labeled Yac-1 cells were also dispensed into the wells of the maximum (Maximum, 10% FBS/RPMI1640 including 2% Triton X-100) and minimum (Minimum, 10% FBS/RPMI1640) to calculate the cytotoxicity rate. […] After culture for 4 hours, the medium was mixed well and centrifuged at 100×g for 5 minutes, the supernatant was transferred to a black plate (SPL, #30296), and fluorescence was measured using a fluorescence microplate reader. […]
Cytotoxicity=[(Test fluorescence−minimum fluorescence)/(maximum fluorescence−minimum fluorescence)]×100 [Equation 1] […]

Question: For CC1(C)CC(O)CC(C)(C)N1[O] [Tempol, 4-hydroxy-2,2,6,6-tetramethylpiperidine 1-oxyl], which cytotoxicity is on record?
Answer: Its cytotoxicity is “higher cytotoxicity than normal NK cells”.

— patent publication US20240408140A1, “ENHANCING ANTICANCER FUNCTION OF NATURAL KILLER CELL THROUGH REGULATION OF ANTIOXIDANT MECHANISM” (priority 2021, published 2024)
